# Results from patent publication US11292791B2 (priority 2017, dated 2022).
# Target: BRD4 (Homo sapiens (Human), UniProt O60885)
# Conditions: read-out: BRD4 IC50 (μM gmean)
row,Compound,IC50
1,COC(=O)N1c2ccc3c(nc(Cc4cccc(F)c4OC)n3[C@H]3CC[C@H](C(=O)O)CC3)c2CC[C@@H]1C [Example 661],1 to 1000 µM
2,COC(=O)N1c2ccc3c(nc(Cc4ccc(Cl)cn4)n3[C@@H]3CCC[C@@H](C(=O)O)C3)c2CC[C@@H]1C [Example 663],1 to 1000 µM
3,COC(=O)N1c2ccc3c(nc(Cc4ccc(N5CCCC5=O)cc4)n3[C@H]3CC[C@H](C(=O)O)CC3)c2CC[C@@H]1C [Example 664],1 to 1000 µM
4,COC(=O)N1c2ccc3c(nc(Cc4cncc(C5CC5)n4)n3[C@@H]3CCC[C@@H](C(=O)O)C3)c2CC[C@@H]1C [Example 665],1 to 1000 µM
5,COC(=O)N1c2ccc3c(nc(C(CO)c4ccccc4)n3C3CCCC(C(=O)O)C3)c2CC[C@@H]1C (some centres unmarked) [Example 668],1 to 1000 µM
6,COC(=O)N1c2ccc3c(nc(Cc4cnc(Cl)cn4)n3[C@@H]3CCC[C@@H](C(=O)O)C3)c2CC[C@@H]1C [Example 669],1 to 1000 µM
7,COC(=O)N1c2ccc3c(nc(C(C)Cc4cnn(C)c4)n3C3CCC(C(=O)O)CC3)c2CC[C@@H]1C (some centres unmarked) [Example 671],1 to 1000 µM
8,COC(=O)N1c2ccc3c(nc(C(c4ccc(OC)c(F)c4)C(C)C)n3C3CCC(C(=O)O)CC3)c2CC[C@@H]1C (some centres unmarked) [Example 673],1 to 1000 µM
9,COC(=O)N1c2ccc3c(nc(Cc4ccc(F)cc4)n3[C@@H]3CCC[C@@H](C(=O)O)C3)c2CC[C@@H]1C [Example 675],1 to 1000 µM
10,COC(=O)N1c2ccc3c(nc(CC(C(=O)O)c4cccc(C(F)F)c4)n3C3CCCOC3)c2CC[C@@H]1C (some centres unmarked) [Example 676],1 to 1000 µM
11,COC(=O)N1c2ccc3c(nc(CC(C(=O)O)c4ccccc4)n3-c3ccc(C#N)cc3)c2CC[C@@H]1C (some centres unmarked) [Example 680],1 to 1000 µM
12,COC(=O)N1c2ccc3c(nc(N(C)c4ccc(C#N)cc4)n3[C@@H]3CCC[C@@H](C(=O)O)C3)c2CC[C@@H]1C [Example 681],1 to 1000 µM
13,COC(=O)N1c2ccc3c(nc(Cc4cc(C(F)(F)F)cnn4)n3[C@@H]3CCC[C@@H](C(=O)O)C3)c2CC[C@@H]1C [Example 687],1 to 1000 µM
14,COC(=O)N1c2ccc3c(nc(CN4CCC5(CC5)CC4=O)n3[C@@H]3CCC[C@@H](C(=O)O)C3)c2CC[C@@H]1C [Example 688],1 to 1000 µM
15,COC(=O)N1c2ccc3c(nc(N(C)c4ccc(Cl)cc4)n3[C@H]3CC[C@H](C(=O)O)CC3)c2CC[C@@H]1C [Example 691],1 to 1000 µM
16,COC(=O)N1c2ccc3c(nc(COC4CCCCC4)n3[C@H]3CC[C@H](C(=O)O)CC3)c2CC[C@@H]1C [Example 692],1 to 1000 µM
17,COC(=O)N1c2ccc3c(nc(Cc4cccc(OC5CC5)n4)n3[C@@H]3CCC[C@@H](C(=O)O)C3)c2CC[C@@H]1C [Example 695],1 to 1000 µM
18,COC(=O)N1c2ccc3c(nc(CN4CCC(C)(C)CC4=O)n3[C@@H]3CCC[C@@H](C(=O)O)C3)c2CC[C@@H]1C [Example 696],1 to 1000 µM
19,COC(=O)N1c2ccc3c(nc(CC(C(=O)O)c4ccccc4)n3-c3cccc(C#N)c3)c2CC[C@@H]1C (some centres unmarked) [Example 698],1 to 1000 µM
20,COC(=O)N1c2ccc3c(nc(C(O)C4CCC(F)(F)CC4)n3C3CCCC(C(=O)O)C3)c2CC[C@@H]1C (some centres unmarked) [Example 699],1 to 1000 µM
21,COC(=O)N1c2ccc3c(nc(CC(C(=O)O)c4ccc(C)cc4)n3C3COCC(F)(F)C3)c2CC[C@@H]1C (some centres unmarked) [Example 700],1 to 1000 µM
22,COC(=O)N1c2ccc3c(nc(COC4CCCCC4)n3[C@@H]3CCC[C@@H](C(=O)O)C3)c2CC[C@@H]1C [Example 702],1 to 1000 µM
23,COC(=O)N1c2ccc3c(nc(C4(c5cncc(C)n5)CC4)n3[C@@H]3CCC[C@@H](C(=O)O)C3)c2CC[C@@H]1C [Example 704],1 to 1000 µM
24,COC(=O)N1c2ccc3c(nc(Cc4ccccc4C#N)n3[C@H]3CC[C@H](C(=O)O)CC3)c2CC[C@@H]1C [Example 706],1 to 1000 µM
25,COC(=O)N1c2ccc3c(nc(Cc4cccc(C#N)c4)n3[C@H]3CC[C@H](C(=O)O)CC3)c2CC[C@@H]1C [Example 707],1 to 1000 µM
26,COC(=O)N1c2ccc3c(nc(C(O)c4ccccc4)n3C3CCC(C(=O)O)CC3)c2CC[C@@H]1C (some centres unmarked) [Example 708],1 to 1000 µM
